In the test the target is SARS-CoV-2 3CLpro (Severe acute respiratory syndrome coronavirus 2, UniProt P0DTD1). Briefly: biochemical. It counts as biochemical. The following applies: for inhibition at 5 µM: 4 h; for mean (LOPAC screen with protease) / Replicate_1 (LOPAC screen with protease) / Replicate_2 (LOPAC screen with protease): primary screen at 5 µM. Details: Replicate_1 / Replicate_2 / mean / mean (LOPAC_screen_w_protease): unit not given here.

The mark [1] stands for this setting: sheet LOPAC_screen_w_protease, primary screen of LOPAC1280 at 5 µM with protease, mean of the two replicates.
Where [2] appears, read: sheet LOPAC_screen_w_protease, primary screen of LOPAC1280 at 5 µM with protease, replicate 1.
[3] abbreviates: sheet LOPAC_screen_w_protease, primary screen of LOPAC1280 at 5 µM with protease, replicate 2.
[4] abbreviates: LOPAC1280 primary screen with protease, 5 µM compound, mean of the two replicates.
Where [5] appears, read: sheet LOPAC_screen_w_protease, LOPAC1280 primary screen at 5 µM, with protease, mean of two replicates.
The mark [6] stands for this setting: sheet LOPAC_screen_w_protease, LOPAC1280 primary screen at 5 µM, with protease, replicate 1.
The mark [7] stands for this setting: sheet LOPAC_screen_w_protease, LOPAC1280 primary screen at 5 µM, with protease, replicate 2.
Where [8] appears, read: sheet LOPAC_screen_w_protease, mean of two replicates.
Where [9] appears, read: sheet LOPAC_screen_w_protease, replicate 1.
The mark [10] stands for this setting: sheet LOPAC_screen_w_protease, replicate 2.

Structures can show the parent of a compound that is named as a salt. Where two headings read alike, the source gives them in different places.

On to `CCCC(=O)NCCc1c2n(c3ccc(OC)cc13)Cc1ccccc1-2` [IIK7], for which the mean under setting [1] worked out at 3.902. The same molecule registered a Replicate_1 under setting [2] of 5.727. The molecule also had a Replicate_2 under setting [3] of 2.078.
Regarding `CN1CCN(C2=Nc3cc(Cl)ccc3Nc3ccccc32)CC1` [Clozapine], the inhibition at 5 µM was found to be 2.28% (sheet LOPAC_screen_w_protease, primary screen with protease, mean of two replicates, read-out: mean); 2.27% (sheet LOPAC_screen_w_protease, primary screen with protease, replicate 1, read-out: Replicate_1); 2.3% (sheet LOPAC_screen_w_protease, primary screen with protease, replicate 2, read-out: Replicate_2).
For `N[C@@H](Cc1ccc(O)c(I)c1)C(=O)O` [3-Iodo-L-tyrosine], the “mean (LOPAC_screen_w_protease)” value under setting [4] turned out to be 1.849. Also, the “Replicate_1 (LOPAC_screen_w_protease)” value (LOPAC1280 primary screen with protease, 5 µM compound, replicate 1) is on record as 1.662. The “Replicate_2 (LOPAC_screen_w_protease)” value (LOPAC1280 primary screen with protease, 5 µM compound, replicate 2) turned out to be 2.037.
With `COc1ccccc1OCC(O)CN1CCN(CC(=O)Nc2c(C)cccc2C)CC1` (stereo not drawn) [Ranolazine dihydrochloride], the inhibition at 5 µM (sheet LOPAC_screen_w_protease, LOPAC1280 at 5 µM, mean of two replicates, read-out: mean) came out at 0.975%; the inhibition at 5 µM (sheet LOPAC_screen_w_protease, LOPAC1280 at 5 µM, replicate 1, read-out: Replicate_1) was found to be 1.18%; the inhibition at 5 µM (sheet LOPAC_screen_w_protease, LOPAC1280 at 5 µM, replicate 2, read-out: Replicate_2) was determined as 0.768%.
As to `NNCc1cccc(O)c1` [3-Hydroxybenzylhydrazine dihydrochloride], the inhibition at 5 µM is, setting by setting: (LOPAC1280 primary screen with protease, 5 µM compound, replicate 1, read-out: Replicate_1 (LOPAC_screen_w_protease)) 3.31%; (LOPAC1280 primary screen with protease, 5 µM compound, replicate 2, read-out: Replicate_2 (LOPAC_screen_w_protease)) 0.839%. Under setting [4], the “mean (LOPAC_screen_w_protease)” value came out at 2.074.
Under “sheet LOPAC_screen_w_protease, primary screen with protease, compound at 5 µM, mean of two replicates”, `Cc1cccc(C#Cc2ccccc2)n1.Cl` returned a mean of 3.1043. For the setting “sheet LOPAC_screen_w_protease, primary screen with protease, compound at 5 µM, replicate 1”, this molecule registered a Replicate_1 of 2.241. This molecule also returned a Replicate_2 (sheet LOPAC_screen_w_protease, primary screen with protease, compound at 5 µM, replicate 2) of 3.968.
Molecule `CC(N)(C(=O)O)c1ccc(C(=O)O)cc1` (racemic) [(±)-alpha-Methyl-4-carboxyphenylglycine] had a mean (sheet LOPAC_screen_w_protease, LOPAC1280 primary screen with protease, 5 µM compound, mean of the two replicates) of 4.794. The Replicate_1 (sheet LOPAC_screen_w_protease, LOPAC1280 primary screen with protease, 5 µM compound, replicate 1) is 3.648. This molecule also returned a Replicate_2 (sheet LOPAC_screen_w_protease, LOPAC1280 primary screen with protease, 5 µM compound, replicate 2) of 5.939.
Turning to `CC1=C(CC(=O)O)c2cc(F)ccc2/C1=C\c1ccc(S(C)(=O)=O)cc1` [Sulindac sulfone], the mean under setting [5] is reported as -1.258. For the same molecule, the Replicate_1 under setting [6] is given as 0.6759. Also, the Replicate_2 under setting [7] is listed as -3.192.
As to `C[N+]1(C)C2CCC1CC(OC(=O)c1c[nH]c3ccccc13)C2.[I-]` (stereo not drawn), the mean under setting [1] was found to be 3.717. This molecule also registered a Replicate_1 under setting [2] of 3.9921. Besides, under setting [3], the Replicate_2 worked out at 3.441.
`Cl.Cl.Oc1ccc2c3c1O[C@H]1c4[nH]c5c(c4C[C@@]4(O)[C@@H](C2)N(CC2CC2)CC[C@]314)C[C@@]1(O)[C@H]2Cc3ccc(O)c4c3[C@@]1(CCN2CC1CC1)[C@H]5O4` [nor-Binaltorphimine dihydrochloride]: the “mean (LOPAC screen with protease)” value under setting [8] came out at 34.0021. Moreover, the “Replicate_1 (LOPAC screen with protease)” value under setting [9] is given as 34.0521. Further, under setting [10], the “Replicate_2 (LOPAC screen with protease)” value turned out to be 33.9521.
As for `S=C([S-])OC1CC2CC1C1CCCC21.[K+]` [D-609 potassium], under setting [5], the mean is -1.918. Also, the Replicate_1 under setting [6] is recorded as -2.8235. This molecule also showed a Replicate_2 under setting [7] of -1.0122.
Take `Br.CCCN1CCc2cc(O)cc3c2[C@H]1Cc1ccc(O)c(O)c1-3`: the “mean (LOPAC screen with protease)” value under setting [8] was determined as 94.9167. Under setting [9], the “Replicate_1 (LOPAC screen with protease)” value is 94.651. Further, the “Replicate_2 (LOPAC screen with protease)” value under setting [10] stood at 95.1824.
Turning to `CC(C)NCC(O)COc1cccc2[nH]ccc12` (stereo not drawn) [Pindolol], the inhibition at 5 µM turned out to be 0.855% (sheet LOPAC_screen_w_protease, LOPAC1280 primary screen at 5 µM, with protease, mean of the two replicates, read-out: mean); 0.309% (sheet LOPAC_screen_w_protease, LOPAC1280 primary screen at 5 µM, with protease, replicate 1, read-out: Replicate_1); 1.4% (sheet LOPAC_screen_w_protease, LOPAC1280 primary screen at 5 µM, with protease, replicate 2, read-out: Replicate_2).
As to `C=C1C(=O)O[C@H]2[C@H]1CC/C(C)=C/CC[C@@]1(C)O[C@@H]21` [Parthenolide], the inhibition at 5 µM (sheet LOPAC_screen_w_protease, primary screen of LOPAC1280 at 5 µM with protease, mean of the two replicates, read-out: mean) was 3.43%; the inhibition at 5 µM (sheet LOPAC_screen_w_protease, primary screen of LOPAC1280 at 5 µM with protease, replicate 1, read-out: Replicate_1) stood at 3.99%; the inhibition at 5 µM (sheet LOPAC_screen_w_protease, primary screen of LOPAC1280 at 5 µM with protease, replicate 2, read-out: Replicate_2) turned out to be 2.86%.
For the molecule `CN1C2CCC1CC(OC(c1ccccc1)c1ccc(Cl)cc1)C2.Cl` (stereo not drawn), the “Replicate_1 (LOPAC_screen_w_protease)” value is 2.149, the “Replicate_2 (LOPAC_screen_w_protease)” value is 0.9226 and the “mean (LOPAC_screen_w_protease)” value was 1.536.
`NC(CCCCCP(=O)(O)O)C(=O)O` (racemic) [(±)-2-Amino-7-phosphonoheptanoic acid] returned a mean under setting [1] of 3.542. In addition, under setting [2], the Replicate_1 stood at 3.653. The same molecule showed a Replicate_2 under setting [3] of 3.43.
Take `CN1C2CCC1CC(OC(=O)c1c[nH]c3ccccc13)C2.Cl` (stereo not drawn): the mean (sheet LOPAC_screen_w_protease, LOPAC1280 primary screen at 5 µM, with protease, mean of the two replicates) is on record as 0.5358. This molecule came in with a Replicate_1 under setting [6] of 1.053. The molecule further gave a Replicate_2 under setting [7] of 0.01899.

Source of the values: publication PMC7587356, “High-Throughput Screening for Inhibitors of the SARS-CoV-2 Protease Using a FRET-Biosensor” (Molecules, 2020).
